Test results reported in the CheMixHub drug solubility set.

Assay: xn = mol fraction of the nth substance listed, in the solute-free solvent

Nc1cc(-c2ccncc2)c[nH]c1=O + CO + O
solubility (g/100 g solution)
Details | 278.15 K | 283.15 K | 288.15 K | 293.15 K | 298.15 K | 303.15 K | 308.15 K | 313.15 K | 318.15 K | 323.15 K
x2 = 0.05881 | 0.00167 | 0.00195 | 0.00231 | 0.00269 | 0.00313 | 0.00358 | 0.00409 | 0.00463 | 0.00525 | 0.00594
x2 = 0.1233 | 0.00324 | 0.00377 | 0.00445 | 0.00515 | 0.00595 | 0.00677 | 0.00768 | 0.00865 | 0.00977 | 0.011
x2 = 0.1942 | 0.00545 | 0.00626 | 0.00731 | 0.00841 | 0.00969 | 0.011 | 0.0124 | 0.0141 | 0.0159 | 0.0179
x2 = 0.2727 | 0.00818 | 0.00949 | 0.0111 | 0.0129 | 0.0147 | 0.0167 | 0.0189 | 0.0211 | 0.0237 | 0.0266
x2 = 0.3599 | 0.0113 | 0.013 | 0.0152 | 0.0174 | 0.0201 | 0.0228 | 0.0258 | 0.029 | 0.0326 | 0.0367
x2 = 0.4576 | 0.0147 | 0.0171 | 0.0201 | 0.0232 | 0.0266 | 0.0302 | 0.034 | 0.0381 | 0.0428 | 0.048
x2 = 0.5675 | 0.0183 | 0.0214 | 0.0246 | 0.029 | 0.0331 | 0.0375 | 0.0424 | 0.0475 | 0.0536 | 0.0605
x2 = 0.6923 | 0.0222 | 0.026 | 0.0305 | 0.0355 | 0.0408 | 0.0463 | 0.0524 | 0.0586 | 0.0662 | 0.0743
x2 = 0.835 | 0.0262 | 0.0305 | 0.0355 | 0.0412 | 0.0475 | 0.0545 | 0.0616 | 0.0694 | 0.0789 | 0.0893

c1ccc2c(c1)CCc1ccccc1N2 + CCO + O
solubility (g/100 g solution)
Details | 283.15 K | 288.15 K | 293.15 K | 298.15 K | 303.15 K | 308.15 K | 313.15 K | 318.15 K | 323.15 K | 328.15 K
x2 = 0.04179 | 0.0221 | 0.0315 | 0.0433 | 0.0609 | 0.0803 | 0.109 | 0.143 | 0.188 | 0.245 | 0.315
x2 = 0.08913 | 0.114 | 0.158 | 0.211 | 0.288 | 0.371 | 0.489 | 0.626 | 0.801 | 1.02 | 1.28
x2 = 0.1443 | 0.214 | 0.292 | 0.388 | 0.52 | 0.666 | 0.866 | 1.1 | 1.39 | 1.75 | 2.17
x2 = 0.207 | 0.24 | 0.326 | 0.432 | 0.576 | 0.738 | 0.954 | 1.21 | 1.53 | 1.91 | 2.38
x2 = 0.2814 | 0.229 | 0.311 | 0.414 | 0.548 | 0.706 | 0.909 | 1.15 | 1.46 | 1.82 | 2.27
x2 = 0.3697 | 0.231 | 0.313 | 0.417 | 0.55 | 0.71 | 0.909 | 1.15 | 1.46 | 1.82 | 2.26
x2 = 0.4785 | 0.269 | 0.363 | 0.465 | 0.612 | 0.779 | 1 | 1.28 | 1.62 | 2.02 | 2.49
x2 = 0.6105 | 0.316 | 0.423 | 0.561 | 0.728 | 0.94 | 1.19 | 1.5 | 1.89 | 2.33 | 2.88
x2 = 0.7769 | 0.374 | 0.498 | 0.659 | 0.848 | 1.09 | 1.37 | 1.73 | 2.16 | 2.66 | 3.28

Cc1ccc(-c2cc(C(F)(F)F)nn2-c2ccc(S(N)(=O)=O)cc2)cc1 + CN1CCCC1=O + CCO
solubility (g/100 g solution)
Details | x2 = 0.0491 | x2 = 0.1041 | x2 = 0.1661 | x2 = 0.2365 | x2 = 0.3173 | x2 = 0.4108 | x2 = 0.5202 | x2 = 0.6502 | x2 = 0.8071
293.15 K | 8.15 | 8.62 | 9.04 | 9.29 | 9.69 | 10.4 | 12.6 | 14.8 | 17.6
298.15 K | 8.96 | 9.87 | 10.4 | 10.9 | 11.4 | 12.6 | 14.7 | 16.8 | 19.6
303.15 K | 10.2 | 10.9 | 11.3 | 12.3 | 12.9 | 14.4 | 16.7 | 18.8 | 22
308.15 K | 11.1 | 11.8 | 12.6 | 13.8 | 14.3 | 16.4 | 18.8 | 20.9 | 23.9
313.15 K | 12.1 | 12.7 | 13.9 | 15.2 | 15.9 | 19 | 21.3 | 23.5 | 25.9

Nc1ncc(Br)nc1Br + OCCO + O
solubility (g/100 g solution)
Details | 278.15 K | 283.15 K | 288.15 K | 293.15 K | 298.15 K | 303.15 K | 308.15 K | 313.15 K | 318.15 K | 323.15 K
x2 = 0.03125 | 0.00637 | 0.0078 | 0.00922 | 0.0109 | 0.0127 | 0.0144 | 0.0164 | 0.0186 | 0.0208 | 0.0231
x2 = 0.06767 | 0.0106 | 0.0129 | 0.0152 | 0.018 | 0.0209 | 0.0235 | 0.0267 | 0.0302 | 0.0336 | 0.0373
x2 = 0.1107 | 0.0164 | 0.02 | 0.0235 | 0.0276 | 0.032 | 0.036 | 0.0408 | 0.0459 | 0.0511 | 0.0566
x2 = 0.1622 | 0.0238 | 0.0288 | 0.0338 | 0.0398 | 0.046 | 0.0518 | 0.0585 | 0.0657 | 0.0731 | 0.0809
x2 = 0.225 | 0.0307 | 0.0375 | 0.0446 | 0.0526 | 0.0606 | 0.0684 | 0.0774 | 0.0866 | 0.0965 | 0.108
x2 = 0.3034 | 0.0394 | 0.0471 | 0.0562 | 0.0663 | 0.0766 | 0.0874 | 0.0983 | 0.111 | 0.124 | 0.138
x2 = 0.4038 | 0.0467 | 0.0558 | 0.0667 | 0.0788 | 0.0911 | 0.104 | 0.118 | 0.133 | 0.148 | 0.164
x2 = 0.5373 | 0.0508 | 0.0614 | 0.0739 | 0.0875 | 0.103 | 0.116 | 0.132 | 0.148 | 0.165 | 0.184
x2 = 0.7232 | 0.0528 | 0.0647 | 0.077 | 0.0912 | 0.106 | 0.12 | 0.137 | 0.154 | 0.173 | 0.194

Nc1cc(-c2ccncc2)c[nH]c1=O + CCO + O
solubility (g/100 g solution)
Details | 278.15 K | 283.15 K | 288.15 K | 293.15 K | 298.15 K | 303.15 K | 308.15 K | 313.15 K | 318.15 K | 323.15 K
x2 = 0.04165 | 0.00114 | 0.00134 | 0.00159 | 0.00187 | 0.00218 | 0.00251 | 0.00288 | 0.00327 | 0.00372 | 0.00424
x2 = 0.08908 | 0.00176 | 0.00207 | 0.00246 | 0.00288 | 0.00334 | 0.00384 | 0.0044 | 0.00498 | 0.00565 | 0.00642
x2 = 0.1436 | 0.00254 | 0.00304 | 0.00354 | 0.00413 | 0.00483 | 0.00549 | 0.00631 | 0.00722 | 0.00814 | 0.00941
x2 = 0.2068 | 0.00365 | 0.00427 | 0.00505 | 0.00593 | 0.00696 | 0.00785 | 0.009 | 0.0101 | 0.0116 | 0.0132
x2 = 0.2812 | 0.00514 | 0.00605 | 0.00709 | 0.0083 | 0.00956 | 0.0109 | 0.0125 | 0.014 | 0.0158 | 0.0179
x2 = 0.3698 | 0.0062 | 0.00747 | 0.00879 | 0.0103 | 0.0119 | 0.0137 | 0.0156 | 0.0178 | 0.0203 | 0.023
x2 = 0.4772 | 0.00811 | 0.00922 | 0.0108 | 0.0129 | 0.0146 | 0.0167 | 0.0193 | 0.0219 | 0.0247 | 0.0282
x2 = 0.6101 | 0.00938 | 0.0112 | 0.013 | 0.0153 | 0.0176 | 0.0202 | 0.0231 | 0.0259 | 0.029 | 0.033
x2 = 0.7788 | 0.0106 | 0.0125 | 0.0148 | 0.0174 | 0.0202 | 0.0229 | 0.026 | 0.0294 | 0.0329 | 0.0368
